Experimental data reported in PubChem BioAssay (NCI).
Values joined by “and” are separate entries in the source; they are usually repeats but may differ in a detail not shown here. Equal values may be shown once.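 A five-concentration, 48-hour dose response in 96-well plates underlies each endpoint, interpolated linearly between surrounding concentrations. GI50 is the concentration that inhibits growth by half. At the TGI there is no net growth.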

Legend:
Assay in all cases: DTP human tumour cell line panel, 48 h
[1] = tested on: DLD-1 colon
[2] = tested on: HCC-2998 colon
[3] = tested on: HOP-62 NSCLC
[4] = tested on: LXFL 529 NSCLC
[5] = tested on: SF-268 CNS
[6] = tested on: SF-539 CNS
[7] = tested on: SN12C renal
[8] = tested on: SNB-19 CNS
[9] = tested on: SW-620 colon
[10] = tested on: UACC-257 melanoma

SMILES	TGI [1]	TGI [2]	TGI [3]	TGI [4]	TGI [5]	TGI [6]	TGI [7]	TGI [8]	TGI [9]	TGI [10]	GI50 [1] [µM]	GI50 [4] [µM]	GI50 [9] [µM]	GI50 [10]	GI50 [2]	GI50 [3]	GI50 [5]	GI50 [7]	GI50 [6] [µM]	GI50 [8] [µM]
O=C1c2ccccc2C(=O)c2cc3c(cc21)CS(=O)C3	> 100 µM	> 100 µM	> 100 µM	> 100 µM	> 100 µM	> 100 µM	43.3 µM	> 100 µM	> 100 µM	> 100 µM	–	–	–	–	–	–	–	–	–	–
COc1ccccc1NC(=O)C1=C(C)NC(C)=C(C(=O)Nc2ccccc2OC)C1c1ccccc1[N+](=O)[O-]	36.5 µM	33 µM	88.2 µM	25 µM	50.7 µM	37 µM	37.4 µM	–	–	47.5 µM	–	–	–	–	–	–	–	–	–	–
O=C1[C@@H]2C(c3ccc(Br)cc3)=NO[C@@H]2C(=O)N1c1ccc(Cc2ccc(N3C(=O)[C@H]4C(c5ccc(Br)cc5)=NO[C@H]4C3=O)cc2)cc1	> 40 µM	> 3.48 µM	> 3.48 µM	> 40 µM	> 3.48 µM	> 3.48 µM	> 40 µM	> 3.48 µM	> 40 µM	> 40 µM	> 40	> 40	> 40	> 40 µM	–	–	–	–	–	–
CN=c1ss/c(=N\C(=S)N(C)C)n1C	> 100 µM	> 100 µM	> 100 µM	> 100 µM	> 100 µM	> 100 µM	> 100 µM	> 100 µM	> 100 µM	> 100 µM	–	–	–	–	–	–	–	–	–	–
COc1cc(C2c3cc4c(cc3[C@@H](NCCN(C)C)C3COC(=O)[C@H]23)OCO4)cc(OC)c1O (some centres undefined)	4.03 µM and 7.43 µM	1.69 µM and 2.64 µM	0.191 µM and 0.372 µM	6.9 µM and 13.2 µM	1.49 µM and 4.29 µM	0.207 µM and 0.974 µM	0.406 µM and 0.982 µM	5.18 µM and 9.62 µM	3.51 µM and 3.71 µM	4.14 µM and 6.16 µM	–	–	–	0.526 µM and 1.62 µM	0.383 µM and 1.21 µM	0.0191 µM and 0.0491 µM	0.137 µM and 0.316 µM	0.0256 µM and 0.084 µM	–	–
C[C@H]1CC[P+](Cc2ccccc2)(c2ccccc2)C1 (some centres undefined)	> 100 µM	> 100 µM	> 100 µM	> 100 µM	–	> 100 µM	> 100 µM	> 100 µM	> 100 µM	80.2 µM	–	–	–	–	–	–	–	–	–	–
Nc1nncc2c1c(Br)cn2C1OC(CO)C(O)C1O (centres undefined)	> 53 µM	> 100 µM	> 100 µM	> 100 µM	> 100 µM	> 100 µM	> 100 µM	> 100 µM	> 100 µM	> 100 µM	–	–	–	–	–	–	–	–	–	–
CC(C)(C)c1cc(CCC(=O)Nc2ccc(Cl)cc2)[nH]c(=S)n1	> 100 µM	> 100 µM	> 100 µM	> 100 µM	> 100 µM	> 100 µM	> 100 µM	> 100 µM	> 100 µM	> 100 µM	–	–	–	–	–	–	–	–	–	–
COC1C2C[C@@H](O)CCC2C(C(=O)OCCl)C[C@H]1O (some centres undefined)	> 100 µM	> 100 µM	> 100 µM	> 100 µM	> 100 µM	> 100 µM	> 100 µM	> 100 µM	> 100 µM	> 100 µM	–	–	–	–	–	–	–	–	–	–
COC(=O)NC1C(C)OC(OC2C/C=C(/C)C3C=CC4C(OC5CC(OC6CCC(OC7CC(O)C(OC8CCC(O)C(C)O8)C(C)O7)C(C)O6)C(OC(C)=O)C(C)O5)C(C)CC(C)C4C3(C)/C(O)=C3/C(=O)OC4(CC(C=O)=CC(O)C4/C=C\2C)C3=O)CC1(C)[N+](=O)[O-] (centres undefined)	11.7 µM and 1.8 µM	1.95 µM and 0.453 µM	1.81 µM and 0.667 µM	1.97 µM	11.2 µM and 9.73 µM	–	3.32 µM and 0.891 µM	3.45 µM and 0.509 µM	4.74 µM and 1.11 µM	2.47 µM and 11.1 µM	0.427	–	0.212	1.09 µM	0.208 µM	0.275 µM	0.105 µM	0.27 µM	0.0287	0.0728
CC(C)N(C(=O)C12C3C4C1C1C2C3C41C#N)C(C)C (centres undefined)	> 100 µM	> 100 µM	> 100 µM	> 100 µM	> 100 µM	> 100 µM	> 100 µM	> 100 µM	> 100 µM	> 100 µM	–	–	–	–	–	–	–	–	–	–
